The source of these data is patent publication US10472380B2, “Platinum compounds having a heterocycle ligand, nanoparticles, and uses thereof” (PLACON THERAPEUTICS, INC., priority 2013, dated 2019).

For test [1], the system named is calf thymus DNA. The following applies: general statement on classic platinum agents; cited from earlier work.
Test [2] concerns A549 cells. The experiment in a line: DNA platination in cells, DNA extracts analyzed by GFAA. The following applies: 60 μM, 2 hours at 37° C. It is filed as cell-based. The protocol: 5×10^6 A549 cells were received in tubes from Nobel Life Sciences in 10% FBS, 5% DMSO. Upon thawing, cells were washed with RPMI to remove the DMSO. […] Cells were then lysed and applied to a DNEasy™ DNA purification kit. The resulting DNA extracts were then analyzed by GFAA.

Test [3] relates to A549 tumor cell line. The test can be described thus: CellTiter-Glo cell viability assay in A549 tumor cell line. Type of test: cell-based. The following applies: CellTiter-Glo luminescence. Here is the method: The cell suspension was transferred to a centrifuge tube and centrifuged at 800-1000 rpm for 3-5 minutes.
The lyophilized CellTiter-Glo substrate was equilibrated to room temperature prior to use.
The contents were mixed for 2 minutes on an orbital shaker to induce cell lysis.
For orientation: In ATP-based viability assays light output follows the ATP content of the culture.

As for `N.N.[Cl][Pt][Cl]` [Cisplatin], the “DNA associated platinum in this type of experiment” value in test [1] is reported as “high degree of DNA associated platinum”. In addition, the “DNA platination, % of Cisplatin standard” value in test [2] is reported as 100%. In general, IC50 refers to the concentration that gives 50% inhibition. Read a low IC50 as higher potency. Molecule “Di-1,1,3,3-tetramethylbutylcarbamate, ammonia quinoplatinium (II) [Compound 19]” had an IC50 in test [3] of 4.3 µM.
